Results on one compound are retold here after patent publication EP0430029A2, “Pyridin-2,4- and 2,5-dicarboxylic acid diamides, process for their preparation and their use” (HOECHST AKTIENGESELLSCHAFT, priority 1989, dated 1991).

This assay has as its system durch CCl₄ induzierte Leberfibrose in Ratten. Put plainly: CCl₄-induced liver fibrosis in rats, 8-week treatment (liver hydroxyproline, serum procollagen III peptide, serum bilirubin). The format is in vivo. Particulars: 8 weeks. From the text:
Zum Nachweis der effektiven Hemmung der Prolin- und Lysinhydroxylase durch die erfindungsgemäßen Verbindungen wurden die Hydroxyprolin-Konzentrationen in der Leber und die Prokollagen-III-Peptid-Konzentrationen im Serum von • a) unbehandelten Ratten (Kontrolle) • b) Ratten, denen Tetrachlorkohlenstoff verabreicht wurde (CCl₄-Kontrolle) • c) Ratten, denen zunächst CCl₄ und anschließend eine erfindungsgemäße Verbindung verabreicht wurde gemessen (diese Testmethode wird beschrieben von Rouiller, C., experimental toxic injury of the liver; in The Liver, C. Rouiller, Vol. 2, S. 335-476, New York, Academic Press, 1964).
Die Wirkstärke der erfindungsgemäßen Verbindungen wurde als prozentuale Hemmung der Leber-Hydroxyprolin- und Prokollagen-III-Peptidsynthese nach oraler Gabe im Vergleich zu Kontrolltieren, denen nur Tetrachlorkohlenstoff verabreicht wurde (CCl₄-Kontrolle), bestimmt. Die Ergebnisse sind in Tabelle 1 aufgeführt. Tabelle 1

On to `CC(=O)NNC(=O)c1ccnc(C(=O)NNC(C)=O)c1` [Example 1, Pyridin-2,4-dicarbonsäuredi-(methylcarbonylhydrazid)], for which the Bilirubin (Bilirubin in Serum (total), rats given CCl₄ then compound, daily oral dose 50 mg/kg) is recorded as 3,0 µM. For the same compound, the Hyp (Hydroxyprolin Gehalt in der Leber, rats given CCl₄ then compound, daily oral dose 50 mg/kg) is listed as 0,181 µg/ml. For the setting “Prokollagen III N-peptid im Serum, rats given CCl₄ then compound, daily oral dose 50 mg/kg”, the PIIIP worked out at 29 ng/mL. The “Hyp Zunahme (absolut) gegen Kontrolle” value (liver hydroxyproline, absolute increase versus untreated control, 50 mg/kg oral daily) was 0,125 µg/ml. Also, the “Hyp prozentuale Abnahme gegen CCl₄-Behandlung” value (liver hydroxyproline, 50 mg/kg oral daily) was 27%. Where the note is “mean of the percent decreases of bilirubin, PIIIP and Hyp versus CCl₄ treatment, 50 mg/kg oral daily”, the “Mittelwert: Gesamtgehalt an Bilirubin, PIIIP und Hyp, % Abweichung” value is “(33 ± 13 %)”. In addition, the “PIIIP Zunahme (absolut) gegen Kontrolle” value (serum procollagen III N-peptide, absolute increase versus untreated control, 50 mg/kg oral daily) turned out to be 18 ng/mL. Moreover, the “PIIIP prozentuale Abnahme gegen CCl₄-Behandlung” value (serum procollagen III N-peptide, 50 mg/kg oral daily) came to 14%. The “Bilirubin Zunahme (absolut) gegen Kontrolle” value (serum total bilirubin, absolute increase versus untreated control, 50 mg/kg oral daily) is 1,1 µM. Moreover, the “Bilirubin prozentuale Abnahme gegen CCl₄-Behandlung” value (serum total bilirubin, 50 mg/kg oral daily) is 58%.
